Measured values taken from ChEMBL document CHEMBL1201862, “PubChem BioAssay data set” (2004).
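All cell lines were grown in 96-well plates and treated with compound for 48 hours. GI50: concentration for 50% inhibition of growth.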 Active and inactive are the calls of the source. Cut-off read from the data, not from the text of the source: active = GI50 up to about 1.1 µM and inactive = higher.

Columns and labels:
Test in all cases: NCI tumour cell line growth inhibition, 48 h
[1] = system: A549
[2] = system: ACHN
[3] = system: BT-549
[4] = system: HOP-92
[5] = system: HT-29
[6] = system: IGROV-1
[7] = system: K562
[8] = system: KM12
[9] = system: MDA-MB-231
[10] = system: NCI-H23
[11] = system: NCI/ADR-RES
[12] = system: OVCAR-3
[13] = system: OVCAR-8
[14] = system: RPMI-8226
[15] = system: SF-539
[16] = system: SN12C
[17] = system: SNB-75
[18] = system: U-251
[19] = system: HCC 2998

Measured: GI50

O=c1[nH]c2ccc(Cl)cc2o1
inactive: [1] > 100 µM | [2] > 100 µM | [3] > 100 µM | [4] 17.5 µM | [5] > 100 µM | [6] > 100 µM | [7] > 100 µM | [8] > 100 µM | [9] > 100 µM | [10] > 100 µM | [11] > 100 µM | [12] > 100 µM | [13] > 100 µM | [14] > 100 µM | [15] > 100 µM | [16] > 100 µM | [17] > 100 µM | [18] > 100 µM

OC(c1cc2ccccc2[nH]1)C1(c2cccnc2)SCCCS1 (stereo not drawn)
inactive: [1] 47.6 µM | [2] 86.5 µM | [3] 57.9 µM | [4] > 100 µM | [5] 33 µM | [6] 53.8 µM | [7] 27.2 µM | [8] 26.7 µM | [9] 23.1 µM | [10] 35.6 µM | [11] 53.3 µM | [13] 63.8 µM | [16] 99.3 µM | [17] 73.6 µM | [18] 47.1 µM

O=C1NC(=O)C(C(c2ccc(Cl)cc2)C2C(=O)NC(=O)NC2=O)C(=O)N1.c1ccncc1
inactive: [1] > 100 µM | [2] > 100 µM | [3] > 100 µM | [4] > 100 µM | [5] > 100 µM | [6] > 100 µM | [7] > 100 µM | [8] > 100 µM | [9] > 100 µM | [10] > 100 µM | [11] > 100 µM | [12] > 100 µM | [13] > 100 µM | [14] > 100 µM | [16] > 100 µM | [18] > 100 µM

Cc1c2c(n3c(nc4ccccc43)c1C#N)NCC2
inactive: [1] > 10 µM | [2] > 10 µM | [3] > 10 µM | [4] > 10 µM | [5] > 10 µM | [6] > 10 µM | [7] > 10 µM | [8] > 10 µM | [9] > 10 µM | [10] > 10 µM | [11] > 10 µM | [12] > 10 µM | [13] > 10 µM | [14] > 10 µM | [15] > 10 µM | [16] > 10 µM | [17] > 10 µM | [18] > 10 µM

CCC(=O)C(CCN1CCC(N2C(=O)C(CCC#N)c3ccccc32)CC1)(c1ccccc1)c1ccccc1 (stereo not drawn)
inactive: [1] 14 µM | [2] 15.9 µM | [3] 13.3 µM | [19] 12.4 µM | [5] 3.4 µM | [6] 14.6 µM | [7] 3.8 µM | [8] 13.4 µM | [9] 7.36 µM | [10] 18.2 µM | [11] 11.5 µM | [12] 10.9 µM | [13] 11.4 µM | [14] 4.17 µM | [15] 18.3 µM | [16] 18 µM | [17] 12.9 µM | [18] 14.6 µM

Cc1ccc(C)c(COCCOCn2cc(Br)c(N)nc2=O)c1
inactive: [1] > 100 µM | [2] > 100 µM | [3] > 100 µM | [19] > 100 µM | [4] > 100 µM | [6] > 100 µM | [7] > 100 µM | [8] > 100 µM | [9] > 100 µM | [10] > 100 µM | [11] > 100 µM | [12] > 100 µM | [13] > 100 µM | [15] > 100 µM | [16] > 100 µM | [17] > 100 µM | [18] > 100 µM

CC(O)C1(CNc2cc(Cl)nc(N)n2)CC(CCc2ccccc2)C1 (stereo not drawn)
inactive: [1] 10.6 µM | [2] 9.73 µM | [3] 15.9 µM | [4] 12.2 µM | [5] 13 µM | [6] 13.6 µM | [7] 6.78 µM | [8] 14.5 µM | [9] 10.7 µM | [10] 3.06 µM | [11] 4.1 µM | [12] 16.1 µM | [13] 14.5 µM | [14] 11.6 µM | [15] 16.6 µM | [16] 7.66 µM | [17] 15.5 µM | [18] 14.5 µM

C=C(C)CCC(O)[C@](C)(O)[C@H]1[C@H](O)C[C@@]2(C)[C@@H]3CCc4c(cc(OC5OC(CO)C(O)C(O)C5O)c(O)c4C)C3(C)C(=O)C[C@]12C (stereo partly drawn)
inactive: [1] > 100 µM | [2] > 100 µM | [3] > 100 µM | [19] > 100 µM | [4] > 100 µM | [5] > 100 µM | [6] > 100 µM | [7] > 100 µM | [8] > 100 µM | [9] > 100 µM | [10] > 100 µM | [11] > 100 µM | [12] > 100 µM | [13] > 100 µM | [15] > 100 µM | [16] > 100 µM | [17] > 100 µM | [18] > 100 µM
